Target: Serine/threonine-protein kinase PLK1 (Homo sapiens, UniProt P53350)
Experiment: H2O2 production by redox-active compounds – biochemical, 1 mM DTT, artefact control for Plk1 PBD inhibitor project, dose response (AID 936)

Serine/threonine-protein kinase PLK1, sequence (P53350 whole entry): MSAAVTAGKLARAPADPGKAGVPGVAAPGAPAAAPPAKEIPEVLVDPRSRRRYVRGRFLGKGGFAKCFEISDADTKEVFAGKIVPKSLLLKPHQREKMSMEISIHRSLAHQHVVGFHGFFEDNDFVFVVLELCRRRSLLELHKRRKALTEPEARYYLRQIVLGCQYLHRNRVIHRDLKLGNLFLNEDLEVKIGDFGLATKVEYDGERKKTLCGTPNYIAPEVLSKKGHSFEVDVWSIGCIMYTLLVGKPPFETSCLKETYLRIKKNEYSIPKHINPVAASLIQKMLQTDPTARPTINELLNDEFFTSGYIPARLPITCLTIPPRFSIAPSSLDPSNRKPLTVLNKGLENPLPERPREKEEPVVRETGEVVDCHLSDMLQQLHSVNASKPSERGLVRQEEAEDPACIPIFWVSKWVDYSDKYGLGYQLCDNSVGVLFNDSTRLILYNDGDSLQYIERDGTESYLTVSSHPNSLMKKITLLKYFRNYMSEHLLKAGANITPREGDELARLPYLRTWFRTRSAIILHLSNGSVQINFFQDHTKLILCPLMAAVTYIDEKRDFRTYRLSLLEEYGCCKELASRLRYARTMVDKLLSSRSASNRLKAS

SMILES | EC50 [µM]
Cc1ccc(NC(=O)C2CC=CCC2C(=O)N2CCCCC2)cc1 (centres undefined) [6-(Piperidine-1-carbonyl)-cyclohex-3-enecarboxylic acid p-tolylamide] | > 50
CCC(C)c1ccc(NC(=O)C2CC2)cc1 (centres undefined) [MLS000110184] | > 50
CCCc1nc2sc3c(c2c(=O)n1NC(=O)CCC(=O)O)CCCC3 [4-keto-4-[(4-keto-2-propyl-5,6,7,8-tetrahydrobenzothiopheno[2,3-d]pyrimidin-3-yl)amino]butyric acid] | > 50
Nc1cc2nsnc2cc1Br [(6-bromopiazthiol-5-yl)amine] | > 50
O=C(Cc1ccc(Cl)cc1)NCCN1CCCC1 [2-(4-Chloro-phenyl)-N-(2-pyrrolidin-1-yl-ethyl)-acetamide] | > 50
Cn1c(=O)c(NCCO)c2c3c(cccc31)C(=O)c1ccccc1-2 [1-(2-Hydroxy-ethylamino)-3-methyl-3H-naphtho[1,2,3-de]quinoline-2,7-dione] | > 50
CC(C)N(Cc1cc2ccccc2[nH]c1=O)C(=O)c1cccnc1 [N-[(2-oxo-1H-quinolin-3-yl)methyl]-N-propan-2-ylpyridine-3-carboxamide] | > 50
Cc1ccc(C(=O)Nc2cnc3sc(C)nn3c2=O)cc1 [4-methyl-N-(2-methyl-5-oxidanylidene-[1,3,4]thiadiazolo[3,2-a]pyrimidin-6-yl)benzamide] | > 50
Cc1oc2c(c1C(=O)c1ccccc1)C(=O)C(=O)c1ccccc1-2 [2-methyl-3-(phenylcarbonyl)benzo[g][1]benzofuran-4,5-dione] | > 50
NC(=O)Cn1c(S(=O)(=O)Cc2ccccc2)nc2ccccc21 [2-(2-benzylsulfonylbenzimidazol-1-yl)acetamide] | > 50
NC(=O)C1CCN(C2=C(Cl)C(=O)c3ccccc3C2=O)CC1 [SMR000180199] | > 50
COc1ccc(Cn2c(=O)sc3ccccc32)cc1 [3-(4-Methoxy-benzyl)-3H-benzothiazol-2-one] | > 50
O=[N+]([O-])c1ccc(N2CCNCC2)cc1NCC1CCCO1 (centres undefined) [(2-nitro-5-piperazino-phenyl)-(tetrahydrofurfuryl)amine] | > 50
CC1CCCC(NC2CCCCNC2=O)C1 (centres undefined) [3-[(3-methylcyclohexyl)amino]-2-azepanone] | > 50
C=CCn1c2ccccc2c2nnc(SCc3ccc4nonc4c3)nc21 [5-[(5-prop-2-enyl-[1,2,4]triazino[5,6-b]indol-3-yl)sulfanylmethyl]-2,1,3-benzoxadiazole] | > 50
CNC(=O)CC(C(=O)O)c1ccc(OCC(C)C)cc1 (centres undefined) [2-(4-Isobutoxy-phenyl)-N-methyl-succinamic acid] | > 50
CC1CN(C2CC(C)(C)NC(C)(C)C2)CCC1=O (centres undefined) [3-methyl-1-(2,2,6,6-tetramethyl-4-piperidinyl)-4-piperidinone] | > 50
CCN1C(=O)/C(=C/c2nc3ccccc3c(=O)n2-c2ccccc2)c2ccccc21 [2-[(1-ethyl-2-oxo-1,2-dihydro-3H-indol-3-ylidene)methyl]-3-phenyl-4(3H)-quinazolinone] | > 50
CC(C)(C)NC(=O)CC(CC(=O)O)c1ccccc1 (centres undefined) [5-(tert-butylamino)-5-keto-3-phenyl-valeric acid] | > 50
CCOc1ccccc1N1CCN(C2=C(NS(=O)(=O)c3cccs3)C(=O)c3ccccc3C2=O)CC1 [MLS000551587] | > 50

SMILES | EC50 [µM]
Cn1nc(-c2ccc(Cl)cc2)nc2c(=O)n(C)c(=O)nc1-2 [3-(4-Chloro-phenyl)-1,6-dimethyl-1H-pyrimido[5,4-e][1,2,4]triazine-5,7-dione] | > 50
O=C(CC1C(=O)NCCN1C(=S)Nc1ccccc1)Nc1ccc2c(c1)OCCO2 (centres undefined) [2-[1-(anilinocarbonothioyl)-3-oxo-2-piperazinyl]-N-(2,3-dihydro-1,4-benzodioxin-6-yl)acetamide] | > 50
CCn1ccc(C(=O)Nc2ccc(N(C)C(C)=O)cc2)n1 [MLS000043435] | > 50
CC1Cc2ccccc2N1C(=O)c1ccc2c(c1)nnn2C (centres undefined) [(1-methyl-5-benzotriazolyl)-(2-methyl-2,3-dihydroindol-1-yl)methanone] | > 50
Cc1ccc(OCC(=O)Nc2ccc(N3CCOCC3)cc2)cc1 [2-(4-methylphenoxy)-N-(4-morpholin-4-ylphenyl)acetamide] | > 50
Cc1[nH]n2c(=O)cc(-c3ccc([N+](=O)[O-])cc3)nc2c1-c1ccccc1 [MLS000547439] | > 50
Cc1ccc2c(c1)CC1(CN2C)C(=O)NC(=O)N(c2ccccc2C)C1=O (centres undefined) [1',6'-dimethyl-1-(2-methylphenyl)spiro[1,3-diazinane-5,3'-2,4-dihydroquinoline]-2,4,6-trione] | > 50
CCOCCCNC(=O)CCCOc1ccccc1 [MLS000088375] | > 50
COc1cc(OC)cc(C(=O)NCCCN2CCOCC2)c1 [3,5-Dimethoxy-N-(3-morpholin-4-yl-propyl)-benzamide] | > 50
Cc1cccc(C)c1NC1=NC(=S)N(c2ccccc2)C12CCOC(C)(C)C2 (centres undefined) [4-(2,6-dimethylanilino)-7,7-dimethyl-1-phenyl-8-oxa-1,3-diazaspiro[4.5]dec-3-ene-2-thione] | > 50
O=C1Nc2ccc([N+](=O)[O-])cc2C1(O)N1CCCCC1 (centres undefined) [3-hydroxy-5-nitro-3-(1-piperidinyl)-1,3-dihydro-2H-indol-2-one] | > 50
COc1ccc(Nc2oc(-c3ccccc3Cl)nc2C#N)cc1 [2-(2-chlorophenyl)-5-(4-methoxyanilino)-1,3-oxazole-4-carbonitrile] | > 50
O=C(O)C1CCCCC1C(=O)Nc1ccc2c(c1)OCCO2 (centres undefined) [2-(2,3-dihydro-1,4-benzodioxin-6-ylcarbamoyl)cyclohexane-1-carboxylic acid] | > 50
O=C(Nc1cccn(Cc2c(Cl)cccc2Cl)c1=O)c1c(Cl)cccc1Cl [2,6-dichloro-N-[1-(2,6-dichlorobenzyl)-2-keto-3-pyridyl]benzamide] | > 50
COc1cc(S(=O)(=O)N2CCCCCC2)ccc1-n1cnnn1 [1-(3-Methoxy-4-tetrazol-1-yl-benzenesulfonyl)-azepane] | > 50
Cc1cccc(-n2c(CCn3nc(C)c([N+](=O)[O-])c3C)n[nH]c2=S)c1 [3-(2-{4-nitro-3,5-dimethyl-1H-pyrazol-1-yl}ethyl)-4-(3-methylphenyl)-5-sulfanyl-4H-1,2,4-triazole] | > 50
Cc1ccc(Cl)cc1N1CCN(S(=O)(=O)c2ccc3c(c2)oc(=O)n3C)CC1 [6-[4-(5-chloranyl-2-methyl-phenyl)piperazin-1-yl]sulfonyl-3-methyl-1,3-benzoxazol-2-one] | > 50
CC(C)=CC(=O)NCCc1ccccc1 [MLS000089152] | > 50
COc1ccc(CC2NCCC3(O)CCCCC23)cc1 (centres undefined) [1-(4-Methoxy-benzyl)-octahydro-isoquinolin-4a-ol] | > 50
O=C(NC1(C(F)(F)F)NC(=O)N(CC2CCCCC2)C1=O)c1ccco1 (centres undefined) [MLS000040678] | > 50

SMILES | EC50 [µM]
CCOC(=O)Cc1csc(NC(=O)CSc2nnc(-c3ccc(F)cc3)o2)n1 [(2-{2-[5-(4-Fluoro-phenyl)-[1,3,4]oxadiazol-2-ylsulfanyl]-acetylamino}-thiazol-4-yl)-acetic acid ethyl ester] | > 50
O=C(c1ccc(-n2cnnn2)cc1)N1CCCCC1 [1-piperidinyl-[4-(1-tetrazolyl)phenyl]methanone] | > 50
O=C1CCC(C(=O)O)(c2ccccc2)C1 (centres undefined) [3-Oxo-1-phenyl-cyclopentanecarboxylic acid] | > 50
Cc1nc2cccc(C)n2c(=O)c1Cl [3-chloranyl-2,6-dimethyl-pyrido[1,2-a]pyrimidin-4-one] | > 50
Nc1ccc2c(c1)C(=O)C(=O)c1ccccc1-2 [2-Amino-phenanthrene-9,10-dione] | > 50
CCOC(=O)c1cc2n(c1N)-c1ccccc1C2=O [1-amino-4-keto-pyrrol[1,2-a]indole-2-carboxylic acid ethyl ester] | > 50
Cc1ccc(NC2=CC(=NS(=O)(=O)c3cccs3)c3ccccc3C2=O)c(C)c1 | > 50
COC(=O)CCc1c(C)[nH]c(=S)[nH]c1=O [3-(6-methyl-4-oxo-2-sulfanylidene-1H-pyrimidin-5-yl)propanoic acid methyl ester] | > 50
CCc1noc(C)c1C(=O)N1CCOCC1 [(3-ethyl-5-methyl-1,2-oxazol-4-yl)-morpholin-4-yl-methanone] | > 50
COC(=O)c1ccccc1NC1=CC(=NS(=O)(=O)c2cccs2)c2ccccc2C1=O [methyl 2-[[(4E)-1-oxidanylidene-4-thiophen-2-ylsulfonylimino-naphthalen-2-yl]amino]benzoate] | > 50
CS(=O)(=O)N1CCN(C/C=C/c2ccccc2)CC1 [1-(methylsulfonyl)-4-(3-phenyl-2-propen-1-yl)piperazine] | > 50
O=C(CN1C(=O)COc2ccccc21)NCc1ccc(C(=O)O)cc1 [4-[[2-(3-oxidanylidene-1,4-benzoxazin-4-yl)ethanoylamino]methyl]benzoic acid] | > 50
Cc1cc(C)n(-c2nnc3n2N=C(c2ccccc2)CS3)n1 [3-(3,5-dimethyl-1-pyrazolyl)-6-phenyl-7H-[1,2,4]triazolo[3,4-b][1,3,4]thiadiazine] | > 50
CCn1cnc2sc(C(=O)N3CCN(c4ccc(OC)cc4)CC3)c(C)c2c1=O [3-ethyl-6-[4-(4-methoxyphenyl)piperazin-1-yl]carbonyl-5-methyl-thieno[2,3-d]pyrimidin-4-one] | > 50
Nc1cc(-c2ccc(Br)cc2)nn1S(=O)(=O)c1cccc2nsnc12 [2-(2,1,3-benzothiadiazol-4-ylsulfonyl)-5-(4-bromophenyl)-3-pyrazolamine] | > 50
CC(C)Nc1nnc(SCC(=O)c2c(N)n(Cc3ccccc3)c(=O)n(C)c2=O)s1 [6-amino-1-benzyl-3-methyl-5-[2-[[5-(propan-2-ylamino)-1,3,4-thiadiazol-2-yl]sulfanyl]acetyl]pyrimidine-2,4-dione] | > 50
CCC(=O)Nc1ccccc1C(=O)NC1CCCCC1 [MLS000538265] | > 50
COc1ccc2c3c(cccc13)NN=C2C [6-Methoxy-3-methyl-1H-benzo[de]cinnoline] | > 50
O=C1CCN2C=Nc3cccc4ccc1c2c34 [7,8-dihydro-9H-pyrido[1,2,3-cd]perimidin-9-one] | > 50

From BindingDB's records for doi:10.7270/Q2N58JS6 (University of Pittsburgh, 2007)
